Source: patent US8591935B2, “Methods and compositions for treating pain comprising a statin” (Warsaw Orthopedic, Inc., priority 2008, dated 2013)

How the values were obtained:
[1] = system: chronic constriction injury (CCI) rats; experiment: Thermal hyperalgesia: paw withdrawal latency to thermal radiant heat (Hargreaves test) in the chronic constriction injury model; type: in vivo, Wister rats
Protocol: This model may mimic pain associated with sciatica in humans. Twenty-eight male Wister rats (Charles River Laboratories, Wilmington, Mass.) weighing 300±26 g the day of surgery (Day 1) were used in this study. All experiments were conducted in accordance with the International Association for the Study of Pain guidelines and approved by the Institutional Animal Care and Use Committee at SRI International, Inc (Menlo Park, Calif.). CCI was induced according to the method of Bennett and Xie. Briefly, each animal was anesthetized by intraperitoneal (IP) injection of sodium pentobarbital at a dose of 60 mg/kg. The animal's common sciatic nerve was exposed and freed from adherent tissue at mid-thigh by separating the biceps femoris muscles by blunt dissection. Four loose ligatures were placed 1 mm apart, using chromic gut suture (4-0 absorbable suture; Jorgensen Laboratories, Inc., Loveland, Colo.). Seven animals were randomly assigned to each treatment group. […] The radiant infrared heat source stimulus intensity was set to IR50 and the cut-off time was set at 15 seconds. Rats were placed on a glass platform and allowed to habituate to the testing chambers for a minimum of 15 minutes prior to each testing session. The thermal stimulus was applied to the plantar surface of the paw. Thermal thresholds were defined as the latency in seconds at the first pain behavior, which includes paw withdrawal, flinching, biting and/or licking of the stimulated paw. The readings for all animals were averaged and the mean and standard error of the mean (SEM) were determined for each treatment group.

[2] = system: chronic constriction injury (CCI) rats; experiment: Mechanical allodynia: von Frey monofilament test in the chronic constriction injury model; type: in vivo, Wister rats
Protocol: This model may mimic pain associated with sciatica in humans. Twenty-eight male Wister rats (Charles River Laboratories, Wilmington, Mass.) weighing 300±26 g the day of surgery (Day 1) were used in this study. All experiments were conducted in accordance with the International Association for the Study of Pain guidelines and approved by the Institutional Animal Care and Use Committee at SRI International, Inc (Menlo Park, Calif.). CCI was induced according to the method of Bennett and Xie. Briefly, each animal was anesthetized by intraperitoneal (IP) injection of sodium pentobarbital at a dose of 60 mg/kg. The animal's common sciatic nerve was exposed and freed from adherent tissue at mid-thigh by separating the biceps femoris muscles by blunt dissection. Four loose ligatures were placed 1 mm apart, using chromic gut suture (4-0 absorbable suture; Jorgensen Laboratories, Inc., Loveland, Colo.). Seven animals were randomly assigned to each treatment group. Mechanical allodynia was measured using von Frey monofilaments (Stoelting, Wood Dale, Ill.) with varying stiffness (2.0-15.0 g) on Days −1 (baseline), 8, and 15 as described previously. Animals were placed on a perforated metallic platform and allowed to habituate to their surroundings for a minimum of 15 minutes before testing. The 50% paw withdrawal threshold response was determined by a sequential increasing and/or decreasing of the stimulus strength (the “up-down method” of Dixon). Each filament was applied with enough pressure to cause a buckling effect. Absence of a paw lifting/withdrawal response after 5 seconds prompted the use of the filament of next higher weight. Paw withdrawal indicating a positive response prompted the use of a weaker filament. After the initial response (i.e., paw withdrawal), the testing continued for four additional measurements and was used to calculate the response threshold. Four consecutive positive responses received a score of 0.25 g, and five consecutive negative responses (i.e., no paw withdrawal) received a score of 15 g. The 50% paw withdrawal threshold was calculated using the formula: 10 (Xf+kd)/10,000, where Xf is the final von Frey filament used (log units), k is a value that analyzes the response pattern (taken from the table published by Chaplan et al.), and d is the mean difference between stimuli (log units). The mean and standard error of the mean (SEM) were determined for each treatment group.

[3] = lovastatin 0.3 mg/kg/day IP for 15 days, CCI rats
[4] = lovastatin 3 mg/kg/day IP for 15 days, CCI rats
[5] = sulindac 2 mg/kg/day IP for 15 days, CCI rats

SMILES | thermal hyperalgesia withdrawal score, course over the study ([1]; high dose lovastatin pump group, 0.4 mcg/hr) | thermal hyperalgesia withdrawal score compared with other statin groups ([1]; high dose lovastatin pump group, 0.4 mcg/hr, day 21) | pain reduction, paw withdrawal latency to thermal radiant heat vs PBS vehicle [1, 3] | thermal withdrawal time as % of per-operative baseline ([1]; lovastatin 0.3 mg/kg/day IP, Day 7) [%] | thermal hyperalgesia pain behavioral response vs 50:50 DMSO/PBS vehicle ([1]; lovastatin 0.3 mg/kg/day IP, all days tested) | thermal withdrawal time as % of per-operative baseline ([1]; lovastatin 0.3 mg/kg/day IP, days 14 and 21) [%] | pain reduction, paw withdrawal latency to thermal radiant heat vs PBS vehicle [1, 4] | pain reduction, paw withdrawal latency to thermal radiant heat vs PBS vehicle ([1]; lovastatin 3 mg/kg/day IP, at day 14) | thermal withdrawal scores as % of baseline ([1]; low dose lovastatin group (100-fold decrease from 0.3 mg/kg/day), all testing days) [%] | mechanical allodynia pain behavioral response compared with the 0.3 mg/kg/day group ([2]; lovastatin 40 ng/hr group) | pain reduction, von Frey paw withdrawal threshold (mechanical stimulation) vs PBS vehicle [2, 3] | mechanical allodynia pain behavioral response ([2]; lovastatin 0.3 mg/kg/day, all time points) | pain reduction, von Frey paw withdrawal threshold (mechanical stimulation) vs PBS vehicle [2, 4] | pain reduction, von Frey paw withdrawal threshold (mechanical stimulation) vs PBS vehicle ([2]; lovastatin 3 mg/kg/day IP, at day 15) | mechanical allodynia pain response compared with 50:50 DMSO/PBS vehicle control ([2]; lovastatin 0.4 mcg/hr) | pain reduction, paw withdrawal latency to thermal radiant heat vs PBS vehicle [1, 5] | pain reduction, paw withdrawal latency to thermal radiant heat vs PBS vehicle ([1]; sulindac 2 mg/kg/day IP, at 7 and 14 days) | pain reduction, von Frey paw withdrawal threshold (mechanical stimulation) vs PBS vehicle [2, 5] | pain reduction, von Frey paw withdrawal threshold (mechanical stimulation) vs PBS vehicle ([2]; sulindac 2 mg/kg/day IP, at 8 and 15 days)
CC[C@H](C)C(=O)O[C@H]1C[C@@H](C)C=C2C=C[C@H](C)[C@H](CC[C@@H]3C[C@@H](O)CC(=O)O3)[C@H]21 [lovastatin] | steadily improved during the course of the study | statistically equivalent to the other two statin groups | effective at reducing pain | 68 | reduced this pain behavioral response at all days tested | 61 | effective at reducing pain | particularly effective | ~60 | probably statistically equivalent | effective at reducing pain | able to reduce this pain behavioral response at all time points | effective at reducing pain | particularly effective | probably statistically equivalent to the vehicle control | – | – | – | –
CC1=C(CC(=O)O)c2cc(F)ccc2/C1=C\c1ccc([S+](C)[O-])cc1 (stereo not shown) [sulindac] | – | – | – | – | – | – | – | – | – | – | – | – | – | – | – | effective at reducing pain | particularly effective | effective at reducing pain | particularly effective
